For one experiment, the target named is T1, Histone deacetylase 8 (Homo sapiens, UniProt Q9BY41).
T1 sequence (Q9BY41 whole entry): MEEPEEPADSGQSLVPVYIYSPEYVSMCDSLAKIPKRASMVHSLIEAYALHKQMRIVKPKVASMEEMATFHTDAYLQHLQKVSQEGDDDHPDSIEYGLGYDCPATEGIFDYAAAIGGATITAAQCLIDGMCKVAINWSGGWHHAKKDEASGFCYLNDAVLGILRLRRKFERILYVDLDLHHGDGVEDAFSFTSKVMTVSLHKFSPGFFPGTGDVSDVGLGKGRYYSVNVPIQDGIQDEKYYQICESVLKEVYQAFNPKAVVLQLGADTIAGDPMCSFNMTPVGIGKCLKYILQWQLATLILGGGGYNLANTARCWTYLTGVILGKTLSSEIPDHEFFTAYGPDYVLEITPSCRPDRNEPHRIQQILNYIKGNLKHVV
The experiment in a line: Inhibition of HDAC8 (unknown origin) measured after 30 mins by fluorescence microplate reader assay.

In the next experiment the target is T2, Histone deacetylase 11 (Homo sapiens, UniProt Q96DB2).
T2 sequence (Q96DB2 whole entry): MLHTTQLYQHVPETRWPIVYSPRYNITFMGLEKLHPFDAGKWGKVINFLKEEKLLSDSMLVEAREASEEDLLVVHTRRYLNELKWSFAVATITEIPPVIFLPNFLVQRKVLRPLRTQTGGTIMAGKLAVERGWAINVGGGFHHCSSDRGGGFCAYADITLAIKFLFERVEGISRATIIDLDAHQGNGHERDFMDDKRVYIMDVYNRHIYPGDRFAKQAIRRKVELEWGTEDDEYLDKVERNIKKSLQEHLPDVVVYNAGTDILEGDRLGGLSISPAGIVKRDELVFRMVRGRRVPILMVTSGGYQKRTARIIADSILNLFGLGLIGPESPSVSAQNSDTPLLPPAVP
The experiment in a line: Inhibition of recombinant human HDAC11 measured after 30 mins by fluorescence microplate reader assay.

Another experiment concerns the target CDK4/Cyclin D3 (Homo sapiens, UniProt P11802). Description: Inhibition of full length human CDK4 (1 to 303 residues)/N-terminal GST-fusion tagged CyclinD3 (1 to 292 residues) expressed in baculovirus expression system preincubated for 10 mins followed by substrate and ATP addition by mobility shift assay.
The target of a further experiment is CDK6/cyclin D3 (Homo sapiens, UniProt Q00534). The experiment in a line: Inhibition of full length human CDK6 (1 to 326 end residues)/N-terminal GST-fusion tagged CyclinD3 (1 to 292 residues) expressed in baculovirus expression system preincubated for 10 mins followed by substrate and ATP addition by mobility shift assay.
The target in experiment [1] is CDK4/Cyclin D3 (Homo sapiens) (UniProt P11802+P30281). The following applies: dose 100.0 nM, time 10.0 min.
Experiment [2] has as its target CDK6/cyclin D3 (Homo sapiens) (UniProt P30281+Q00534). The following applies: dose 100.0 nM, time 10.0 min.
The target in another experiment is Histone deacetylase 5 (Homo sapiens, UniProt Q9UQL6). The experiment in a line: Inhibition of HDAC5 (unknown origin) measured after 30 mins by fluorescence microplate reader assay.
A further experiment has as its target Histone deacetylase 9 (Homo sapiens, UniProt Q9UKV0). The experiment in a line: Inhibition of recombinant human HDAC9 measured after 30 mins by fluorescence microplate reader assay.
For experiment [3], the target named is NAD-dependent protein deacetylase sirtuin-2 (Homo sapiens, UniProt Q8IXJ6). Description: Inhibition of recombinant human SIRT2 measured after 30 mins by fluorescence microplate reader assay.
Experiment [4] has as its target NAD-dependent protein deacylase sirtuin-5, mitochondrial (Homo sapiens, UniProt Q9NXA8). Description: Inhibition of recombinant human SIRT5 measured after 30 mins by fluorescence microplate reader assay.
The next experiment has as its system HepG2. The experiment in a line: Antiproliferative activity against human HepG2 cells assessed as cell growth inhibition measured after 48 hrs by CCK8 assay. The experiment is classed as functional, cell-based. The following applies: HepG2, 48 h.
For another experiment, the system named is MCF7. Description: Antiproliferative activity against human MCF7 cells assessed as cell growth inhibition measured after 48 hrs by CCK8 assay. The experiment is classed as functional, cell-based. The following applies: MCF7, 48 h.
A further experiment has as its system HeLa. The experiment in a line: Antiproliferative activity against human HeLa cells assessed as cell growth inhibition measured after 48 hrs by CCK8 assay. Type of experiment: functional, cell-based.
The next experiment has as its system K562. Description: Antiproliferative activity against human K562 cells assessed as cell growth inhibition measured after 48 hrs by CCK8 assay. The experiment is classed as functional, cell-based. The note with it: K562, 48 h.
For experiment [5], the system named is A549. Description: Antiproliferative activity against human A549 cells assessed as cell growth inhibition measured after 48 hrs by CCK8 assay. The experiment is classed as functional, cell-based. The note with it: A549, 48 h.
Experiment [6] deals with A549. Description: Induction of apoptosis in human A549 cells assessed as increase in sum of early and late apoptotic cells at 2.5 to 10 uM measured after 48 hrs by Annexin-V/FITC-propidium iodide staining based flow cytometry analysis. Type of experiment: functional, cell-based. The note with it: dose 2.5-10 µM.
Experiment [7] concerns A549. Description: Antitumor activity against human A549 cells xenografted in BALB/c nude mouse assessed as reduction in tumor size at 25 to 50 mg/kg, iv administered for 21 consecutive days. The experiment is classed as functional, organism-based. The note with it: dose 25-50 mg/kg, time 21.0 day.

The text below walks through data of ChEMBL document CHEMBL4842385, “Indirubin Derivatives as Dual Inhibitors Targeting Cyclin-Dependent Kinase and Histone Deacetylase for Treating Cancer” (J Med Chem, 2021).

Activity calls are given as the source filed them. The rule behind the calls is not given here. Bounds are passed on as bounds.

Sequence of CDK6/cyclin D3 (P30281 whole entry, the tested form may be a part): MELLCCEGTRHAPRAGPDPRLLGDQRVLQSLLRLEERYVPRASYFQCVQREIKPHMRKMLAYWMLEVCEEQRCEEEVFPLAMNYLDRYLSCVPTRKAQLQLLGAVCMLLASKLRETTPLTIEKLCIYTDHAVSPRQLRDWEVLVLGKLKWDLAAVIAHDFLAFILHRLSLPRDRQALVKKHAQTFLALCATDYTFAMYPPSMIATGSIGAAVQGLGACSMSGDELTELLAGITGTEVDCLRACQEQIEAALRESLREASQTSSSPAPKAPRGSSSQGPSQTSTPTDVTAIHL
Sequence of CDK6/cyclin D3 (Q00534 whole entry, the tested form may be a part): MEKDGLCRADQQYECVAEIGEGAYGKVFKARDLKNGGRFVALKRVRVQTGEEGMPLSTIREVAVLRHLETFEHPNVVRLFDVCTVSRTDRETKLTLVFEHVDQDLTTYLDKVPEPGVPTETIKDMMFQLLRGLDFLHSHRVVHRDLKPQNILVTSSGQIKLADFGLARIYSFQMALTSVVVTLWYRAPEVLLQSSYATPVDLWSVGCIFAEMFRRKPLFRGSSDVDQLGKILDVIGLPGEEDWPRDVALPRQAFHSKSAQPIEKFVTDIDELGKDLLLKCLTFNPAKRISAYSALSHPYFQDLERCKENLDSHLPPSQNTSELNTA
Sequence of Histone deacetylase 5 (Q9UQL6 whole entry): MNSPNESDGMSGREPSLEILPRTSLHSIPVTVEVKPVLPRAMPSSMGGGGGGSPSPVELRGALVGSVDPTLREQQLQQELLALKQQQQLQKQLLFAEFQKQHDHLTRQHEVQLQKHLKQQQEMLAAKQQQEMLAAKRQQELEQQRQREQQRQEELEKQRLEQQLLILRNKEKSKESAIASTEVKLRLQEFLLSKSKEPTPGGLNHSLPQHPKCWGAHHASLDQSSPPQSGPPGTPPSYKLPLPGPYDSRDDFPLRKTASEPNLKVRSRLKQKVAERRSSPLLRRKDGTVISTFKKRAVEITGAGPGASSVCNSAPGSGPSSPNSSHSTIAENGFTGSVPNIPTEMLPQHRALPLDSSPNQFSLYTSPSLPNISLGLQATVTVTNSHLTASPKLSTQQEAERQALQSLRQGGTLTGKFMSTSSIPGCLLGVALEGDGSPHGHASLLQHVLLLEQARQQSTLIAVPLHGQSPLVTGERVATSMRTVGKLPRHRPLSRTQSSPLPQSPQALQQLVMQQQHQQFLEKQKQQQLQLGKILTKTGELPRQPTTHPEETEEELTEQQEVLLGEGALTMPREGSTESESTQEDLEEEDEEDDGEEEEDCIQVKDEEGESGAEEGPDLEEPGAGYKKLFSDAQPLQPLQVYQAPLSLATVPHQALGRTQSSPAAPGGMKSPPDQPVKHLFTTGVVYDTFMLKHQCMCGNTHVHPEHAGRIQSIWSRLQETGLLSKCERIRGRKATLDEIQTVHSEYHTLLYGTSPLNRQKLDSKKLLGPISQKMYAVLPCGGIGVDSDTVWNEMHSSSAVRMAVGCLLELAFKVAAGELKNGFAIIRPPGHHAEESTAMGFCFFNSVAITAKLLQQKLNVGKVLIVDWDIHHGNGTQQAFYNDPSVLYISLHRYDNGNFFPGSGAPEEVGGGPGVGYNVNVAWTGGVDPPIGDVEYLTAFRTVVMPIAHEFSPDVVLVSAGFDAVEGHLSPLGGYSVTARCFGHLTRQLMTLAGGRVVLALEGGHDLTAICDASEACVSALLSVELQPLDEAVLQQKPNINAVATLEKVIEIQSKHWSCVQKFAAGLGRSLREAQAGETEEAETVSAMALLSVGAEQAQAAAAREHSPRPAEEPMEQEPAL
Sequence of Histone deacetylase 9 (Q9UKV0 whole entry): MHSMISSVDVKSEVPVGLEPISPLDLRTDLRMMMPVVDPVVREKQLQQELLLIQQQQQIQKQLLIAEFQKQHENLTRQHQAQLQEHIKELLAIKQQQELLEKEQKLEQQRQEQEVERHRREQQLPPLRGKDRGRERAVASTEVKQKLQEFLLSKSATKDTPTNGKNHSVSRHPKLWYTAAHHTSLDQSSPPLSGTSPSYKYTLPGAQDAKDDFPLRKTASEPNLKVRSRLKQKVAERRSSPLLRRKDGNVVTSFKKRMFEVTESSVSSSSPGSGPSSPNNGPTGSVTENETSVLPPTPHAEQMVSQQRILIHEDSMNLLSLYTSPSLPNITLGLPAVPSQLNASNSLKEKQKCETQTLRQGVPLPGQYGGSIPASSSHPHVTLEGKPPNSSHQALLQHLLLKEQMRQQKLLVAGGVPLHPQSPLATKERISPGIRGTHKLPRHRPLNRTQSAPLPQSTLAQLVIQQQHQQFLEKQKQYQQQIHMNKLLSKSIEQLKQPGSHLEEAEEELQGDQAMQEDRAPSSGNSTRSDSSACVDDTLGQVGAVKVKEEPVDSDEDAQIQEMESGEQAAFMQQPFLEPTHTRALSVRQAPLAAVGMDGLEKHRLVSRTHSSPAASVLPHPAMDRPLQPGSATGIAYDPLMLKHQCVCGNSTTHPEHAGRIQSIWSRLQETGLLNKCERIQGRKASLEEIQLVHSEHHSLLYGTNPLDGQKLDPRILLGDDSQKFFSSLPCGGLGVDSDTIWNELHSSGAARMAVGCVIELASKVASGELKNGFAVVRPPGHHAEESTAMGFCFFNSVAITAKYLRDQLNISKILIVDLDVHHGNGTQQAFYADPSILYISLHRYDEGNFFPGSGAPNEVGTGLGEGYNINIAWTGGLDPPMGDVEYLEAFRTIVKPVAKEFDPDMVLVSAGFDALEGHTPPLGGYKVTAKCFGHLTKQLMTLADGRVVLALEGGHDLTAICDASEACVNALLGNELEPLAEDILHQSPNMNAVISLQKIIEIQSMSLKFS
Sequence of CDK4/Cyclin D3 (P11802 whole entry, the tested form may be a part): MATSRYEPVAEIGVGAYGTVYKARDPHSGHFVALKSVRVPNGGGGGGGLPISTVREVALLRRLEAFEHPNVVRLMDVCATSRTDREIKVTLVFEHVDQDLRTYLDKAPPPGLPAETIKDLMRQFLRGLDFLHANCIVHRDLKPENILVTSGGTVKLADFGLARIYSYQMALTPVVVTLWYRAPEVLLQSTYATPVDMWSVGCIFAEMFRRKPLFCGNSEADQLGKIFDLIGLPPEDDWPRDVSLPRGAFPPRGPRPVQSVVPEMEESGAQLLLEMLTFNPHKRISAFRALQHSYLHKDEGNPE
Sequence of CDK4/Cyclin D3 (P30281 whole entry, further chain, the tested form may be a part): as the sequence (P30281 whole entry, the tested form may be a part) above
Sequence of NAD-dependent protein deacylase sirtuin-5, mitochondrial (Q9NXA8 whole entry): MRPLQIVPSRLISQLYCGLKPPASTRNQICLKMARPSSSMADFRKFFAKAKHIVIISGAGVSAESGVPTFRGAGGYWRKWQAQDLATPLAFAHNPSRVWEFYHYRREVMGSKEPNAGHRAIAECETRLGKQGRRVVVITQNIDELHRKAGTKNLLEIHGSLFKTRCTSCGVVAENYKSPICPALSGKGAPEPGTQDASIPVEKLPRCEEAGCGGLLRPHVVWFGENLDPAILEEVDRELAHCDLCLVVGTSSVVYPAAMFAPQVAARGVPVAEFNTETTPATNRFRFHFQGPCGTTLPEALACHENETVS
Sequence of NAD-dependent protein deacetylase sirtuin-2 (Q8IXJ6 whole entry): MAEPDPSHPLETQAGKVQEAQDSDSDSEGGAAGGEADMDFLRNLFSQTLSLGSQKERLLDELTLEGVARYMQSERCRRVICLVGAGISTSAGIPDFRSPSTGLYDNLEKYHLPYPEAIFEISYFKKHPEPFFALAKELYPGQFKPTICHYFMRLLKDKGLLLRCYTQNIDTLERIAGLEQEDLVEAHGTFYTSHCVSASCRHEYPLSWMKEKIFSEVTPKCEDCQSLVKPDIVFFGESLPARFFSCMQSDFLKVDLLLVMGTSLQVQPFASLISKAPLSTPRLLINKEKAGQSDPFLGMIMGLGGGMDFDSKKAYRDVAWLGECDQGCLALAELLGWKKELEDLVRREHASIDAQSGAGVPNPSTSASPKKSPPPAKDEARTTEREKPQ

For the compound `C#CCN1C(=O)/C(=C2\Nc3ccccc3\C2=N/OCCCC(=O)NO)c2ccccc21`, the concentration for half-maximal inhibition (IC50) was greater than 5 µM against Histone deacetylase 8, greater than 5 µM at Histone deacetylase 11, greater than 1 µM at CDK4/Cyclin D3 and greater than 1 µM at CDK6/cyclin D3. Further, the inhibition in experiment [1] was determined as 3.9%; in experiment [2] it was 0.8%.

`O=C(CCCO/N=C1/C(=C2/C(=O)Nc3ccccc32)Nc2ccccc21)NO`: the IC50 is greater than 5 µM on Histone deacetylase 5; greater than 5 µM at Histone deacetylase 8; greater than 5 µM on Histone deacetylase 9; greater than 5 µM on Histone deacetylase 11; greater than 100 µM in [3]; greater than 100 µM in experiment [4]. For the same compound, the IC50 at CDK4/Cyclin D3 is 0.276 µM; at CDK6/cyclin D3 it was 0.0272 µM; with HepG2 it was 5.7 µM; in the experiment with MCF7 it was 2.9 µM; in the experiment with HeLa it was 0.8 µM; in the experiment on K562, 2.5 µM. Also, in the experiment on A549 [5], the IC50 was 2 µM. Also, the result with A549 [6] and in the experiment with A549 [7] was Active. The figures for the inhibition in experiment [1] and in [2] were 30.2% and 76.6%, respectively.

On to `O=C(O)CCCO/N=C1/C(=C2/C(=O)Nc3ccccc32)Nc2ccccc21`, for which the IC50 on Histone deacetylase 5 is greater than 5 µM; on Histone deacetylase 8, greater than 5 µM; on Histone deacetylase 9, greater than 5 µM; at Histone deacetylase 11, greater than 5 µM; in experiment [3], greater than 100 µM; in [4], greater than 100 µM. The concentration for half-maximal inhibition (IC50) is 0.0682 µM at CDK6/cyclin D3; greater than 10 µM in the experiment with HepG2; greater than 10 µM with HeLa; greater than 10 µM in the experiment with K562; greater than 10 µM in the experiment on A549 [5]. In experiment [2], this compound came in with an inhibition of 41.3%.
